Our source for the Ki values is ChEMBL document CHEMBL1141101, “Design, synthesis, and biological activity of m-tyrosine-based 16- and 17-membered macrocyclic inhibitors of hepatitis C virus NS3 serine protease” (J Med Chem, 2005).

Numbered stars: 1 amine (or outer) side, 2 acyl side, 3 side chain; on linkers, the order of the positions; unused ones are H or OH. Square brackets hold non-standard residues; d marks the D form. Peptide text beside a SMILES is read from it. * marks the point of attachment. Phe(3-CF3) = N[C@@H](Cc1cccc(C(F)(F)F)c1)C(=O)O; X1 = CCCC(N[*:1])C(=O)C(=O)[*:2]; Chg = N[C@H](C(=O)O)C1CCCCC1; Phg = N[C@H](C(=O)O)c1ccccc1; Boc = CC(C)(C)OC(=O)*

By Ki is commonly meant a measure of affinity in units of concentration, obtained from inhibition or displacement. Read a high Ki as a looser hold on the target.

NS3, sequence (A3EZJ3 whole entry): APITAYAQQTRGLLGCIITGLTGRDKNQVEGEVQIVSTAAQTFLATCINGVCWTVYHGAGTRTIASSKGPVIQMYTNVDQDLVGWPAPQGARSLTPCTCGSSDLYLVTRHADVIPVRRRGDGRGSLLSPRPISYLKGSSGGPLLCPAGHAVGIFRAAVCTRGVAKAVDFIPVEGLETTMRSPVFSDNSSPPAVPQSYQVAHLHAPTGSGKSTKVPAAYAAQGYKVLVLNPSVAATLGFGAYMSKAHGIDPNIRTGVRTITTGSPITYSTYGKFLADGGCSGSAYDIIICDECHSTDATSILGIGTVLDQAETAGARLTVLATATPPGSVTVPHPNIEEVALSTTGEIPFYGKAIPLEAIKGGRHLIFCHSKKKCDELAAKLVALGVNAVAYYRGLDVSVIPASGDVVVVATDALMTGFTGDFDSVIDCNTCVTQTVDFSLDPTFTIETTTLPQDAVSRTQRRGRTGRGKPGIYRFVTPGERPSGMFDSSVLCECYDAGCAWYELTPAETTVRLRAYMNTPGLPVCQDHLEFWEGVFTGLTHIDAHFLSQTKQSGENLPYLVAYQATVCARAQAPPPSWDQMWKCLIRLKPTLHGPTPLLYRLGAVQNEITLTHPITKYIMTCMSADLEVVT

The assay has as its target NS3 (Hepatitis C virus, UniProt A3EZJ3). Briefly: Binding affinity for HCV NS3 protease measured by HCV continuous assay. More on the design: species or system Hepacivirus hominis.
Compound `CCCC(NC(=O)[C@@H]1Cc2cccc(c2)OCCCCCCC(=O)N[C@@H](C2CCCCC2)C(=O)N1)C(=O)C(=O)NCC(=O)N[C@H](C(=O)OC(C)(C)C)c1ccccc1` (some centres not stated) gave a Ki of 5.5 µM.

`CCCC(NC(=O)[C@@H]1Cc2cccc(c2)OCCCCCC(=O)N[C@@H](C2CCCCC2)C(=O)N1)C(=O)C(=O)NCC(=O)N[C@H](C(=O)O)c1ccccc1` (some centres not stated) returned an inhibition constant Ki of 1.2 µM. Against the preceding compound, the Ki is about 4.6-fold lower.

`CCCC(NC(=O)[C@@H]1Cc2cccc(c2)OCCCCCCC(=O)N[C@@H](C2CCCCC2)C(=O)N1)C(=O)C(=O)NCC(=O)N[C@H](C(=O)O)c1ccccc1` (some centres not stated) came in with a Ki of 0.16 µM.

`CCCC(NC(=O)[C@@H]1Cc2cccc(c2)OCCCCCCC(=O)N[C@@H](C2CCCCC2)C(=O)N1)C(=O)C(=O)NCC(=O)N[C@H](C(=O)N(C)C)c1ccccc1` (some centres not stated) had an inhibition constant (Ki) of 0.31 µM.

`CCCC(NC(=O)[C@@H]1Cc2cccc(c2)OCCCCCC(=O)N[C@@H](C2CCCCC2)C(=O)N1)C(=O)C(=O)NCC(=O)N[C@H](C(=O)OC(C)(C)C)c1ccccc1` (some centres not stated): the Ki is greater than 8.9 µM.

Consider `CCCC(NC(=O)[C@@H]1Cc2cccc(c2)OCCCCCCC(=O)N[C@@H](C2CCCCC2)C(=O)N1)C(=O)C(=O)NCC(=O)N[C@H](C(=O)NC)c1ccccc1` (some centres not stated), for which the Ki was 0.17 µM.

In the case of `CCCC(NC(=O)[C@H](Cc1cccc(C(F)(F)F)c1)NC(=O)[C@@H](NC(=O)OC(C)(C)C)C1CCCCC1)C(=O)C(=O)NCC(=O)N[C@H](C(N)=O)c1ccccc1` (some centres not stated) (Boc-[Chg][Phe(3-CF3)][X1]G[Phg]-NH2), the Ki was determined as 8 µM.
